Results as given in PubChem BioAssay (NCI).
“And” between values parts separate entries of the source, which are not always exact repeats. Equal values may be shown once.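 Each compound was tested at five concentrations against cells in 96-well plates for 48 hours. Here, GI50 denotes the concentration required for 50% inhibition of growth. TGI denotes the concentration required for complete inhibition of growth.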

Columns and labels:
Assay in all cases: inhibition of tumour cell growth, NCI panel, 48 h
DMS 114 small cell lung = tested on: DMS 114 small cell lung
HOP-18 NSCLC = tested on: HOP-18 NSCLC
KM20L2 colon = tested on: KM20L2 colon
RXF-631 renal = tested on: RXF-631 renal
SNB-78 CNS = tested on: SNB-78 CNS
M19-MEL melanoma = tested on: M19-MEL melanoma
DMS 273 small cell lung = tested on: DMS 273 small cell lung
MDA-N = tested on: MDA-N
XF 498 CNS = tested on: XF 498 CNS

CCCCN(CCCC)C(=O)C(=O)CC(=O)/C=C/c1ccccc1
TGI (DMS 114 small cell lung): > 100 µM | TGI (HOP-18 NSCLC): > 100 µM | TGI (KM20L2 colon): > 100 µM | TGI (RXF-631 renal): > 100 µM | TGI (SNB-78 CNS): > 100 µM | TGI (M19-MEL melanoma): > 100 µM | TGI (DMS 273 small cell lung): > 100 µM

O=[N+]([O-])c1ccc(NC(=S)N/N=C(\c2ccccc2)c2ccccn2)cc1
TGI (MDA-N): 3.32 µM and 3.1 µM

Cc1ccc([N+](=O)[O-])cc1NC(=O)C(=O)C1CCC2=C(Sc3ccccc3N2)C1=O (stereo unspecified)
TGI (MDA-N): > 100 µM

CC(=O)OCC(OC(C)=O)C(OC(C)=O)C(OC(C)=O)C(=O)CNn1c(-c2ccccc2Cl)nc2ccc(Br)cc2c1=O (stereo unspecified)
TGI (DMS 114 small cell lung): > 100 µM | TGI (XF 498 CNS): 66.2 µM | TGI (KM20L2 colon): > 100 µM | TGI (SNB-78 CNS): > 100 µM | TGI (M19-MEL melanoma): > 100 µM | TGI (DMS 273 small cell lung): > 100 µM

CC(C)N(Cc1ccccc1)S(=O)(=O)c1n[nH]c(C(C)(C)C)n1
TGI (MDA-N): > 100 µM

C/C=C/C(=O)[O-].N.N.N.N.N.[Co+3].[O-][Cl+3]([O-])([O-])[O-]
GI50 (KM20L2 colon): > 100 µM | TGI (KM20L2 colon): > 100 µM | GI50 (SNB-78 CNS): > 100 µM | TGI (SNB-78 CNS): > 100 µM | GI50 (DMS 273 small cell lung): > 100 µM | TGI (DMS 273 small cell lung): > 100 µM

COC(=O)C12C3C4C1C1C2C3C41C(=O)N(C(C)C)C(C)C (stereo unspecified)
TGI (DMS 114 small cell lung): > 100 µM | TGI (KM20L2 colon): > 100 µM | TGI (SNB-78 CNS): > 100 µM | TGI (M19-MEL melanoma): > 100 µM | TGI (DMS 273 small cell lung): > 100 µM

C[C@]12CC[C@H]3[C@@H](CCC4=C[C@@H](OC5OCC(OC6OC(CO)C(O)C(O)C6O)C(O)C5O)CC[C@@]43C=O)[C@@]1(O)CCC2C1=CC(=O)OC1 (stereo partly specified)
TGI (MDA-N): 3.03 µM

O=C(O)Cc1cc(=O)[nH]c2c1C(=O)CCC2
TGI (HOP-18 NSCLC): > 100 µM | TGI (XF 498 CNS): > 100 µM | TGI (KM20L2 colon): > 100 µM | TGI (M19-MEL melanoma): > 100 µM | TGI (DMS 273 small cell lung): > 100 µM

O=C1NC(O)CCN1C1CC(O)C(CO)O1 (stereo unspecified)
TGI (MDA-N): > 100 µM

CN/N=C(\C(=O)Nc1ccc([N+](=O)[O-])cc1[N+](=O)[O-])C1NC(=O)NC1=O (stereo unspecified)
TGI (DMS 114 small cell lung): > 100 µM | TGI (HOP-18 NSCLC): > 100 µM | TGI (KM20L2 colon): > 100 µM | TGI (SNB-78 CNS): > 100 µM | TGI (M19-MEL melanoma): > 100 µM | TGI (DMS 273 small cell lung): > 100 µM

Cc1ccc(SCC(O)=C2C(=O)CCCC2=O)cc1
TGI (DMS 114 small cell lung): > 100 µM | TGI (HOP-18 NSCLC): > 100 µM | TGI (XF 498 CNS): > 100 µM | TGI (KM20L2 colon): > 100 µM | TGI (RXF-631 renal): > 100 µM | TGI (SNB-78 CNS): > 100 µM | TGI (M19-MEL melanoma): > 100 µM | TGI (DMS 273 small cell lung): > 100 µM

S=c1[nH]nc(SCc2ccccc2Cl)c2[nH]cnc12
TGI (MDA-N): > 100 µM

O=C(O)c1oc2cccc3c2c1CCC3
TGI (DMS 114 small cell lung): > 100 µM | TGI (XF 498 CNS): > 100 µM | TGI (RXF-631 renal): > 100 µM | TGI (SNB-78 CNS): > 100 µM | TGI (M19-MEL melanoma): > 100 µM | TGI (DMS 273 small cell lung): > 100 µM

C[C@H]1CCC/C=C/[C@@H]2C[C@H](O)C[C@H]2[C@H](O)[C@@H](SC2OC(CO)C(O)C(O)C2O)CC(=O)O1 (stereo partly specified)
GI50 (MDA-N): 52.9 µM | TGI (MDA-N): > 100 µM

Cc1c(N)nc(C(CC(N)=O)NCC(N)C(N)=O)nc1C(=O)NC(C(=O)NC(C)C(O)C(C)C(=O)NC(C(=O)NCCc1nc(-c2nc(C(=O)NCCCNCCCCN)cs2)cs1)C(C)O)C(OC1OC(CO)C(O)C(O)C1OC1OC(CO)C(O)C(OC(N)=O)C1O)c1cnc[nH]1 (stereo unspecified)
TGI (DMS 114 small cell lung): > 10 µM | GI50 (MDA-N): 27.4 µg/mL | TGI (HOP-18 NSCLC): > 10 µM | TGI (XF 498 CNS): > 10 µM | TGI (KM20L2 colon): > 10 µM | TGI (RXF-631 renal): > 10 µM | TGI (SNB-78 CNS): > 10 µM | TGI (M19-MEL melanoma): > 10 µM | TGI (DMS 273 small cell lung): > 10 µM

c1ccc(COc2cccc3cccnc23)cc1
TGI (DMS 114 small cell lung): > 100 µM | TGI (HOP-18 NSCLC): > 100 µM | TGI (XF 498 CNS): > 100 µM | TGI (KM20L2 colon): > 100 µM | TGI (RXF-631 renal): > 100 µM | TGI (M19-MEL melanoma): > 100 µM

Cc1cccc(O)c(=O)c1
TGI (DMS 114 small cell lung): 45.7 µM | TGI (HOP-18 NSCLC): > 100 µM | TGI (KM20L2 colon): > 100 µM | TGI (SNB-78 CNS): > 100 µM | TGI (M19-MEL melanoma): > 100 µM | TGI (DMS 273 small cell lung): > 100 µM

COC(=O)/C(=N/O)C(C(=O)OC)C(=O)C(=O)Nc1c(Cl)cc(C)cc1S(=O)(=O)O (stereo unspecified)
TGI (DMS 114 small cell lung): > 100 µM | TGI (HOP-18 NSCLC): > 100 µM | TGI (XF 498 CNS): > 100 µM | TGI (KM20L2 colon): > 100 µM | TGI (RXF-631 renal): > 100 µM | TGI (SNB-78 CNS): > 100 µM | TGI (M19-MEL melanoma): > 100 µM | TGI (DMS 273 small cell lung): 33.2 µM

O=C(Nc1ccccc1C(=O)Nc1nccs1)c1ccccc1
TGI (MDA-N): > 100 µM

CC(=O)Nc1cc2cc(NS(=O)(=O)c3cc(C(F)(F)F)cc(C(F)(F)F)c3)ccc2oc1=O
TGI (MDA-N): > 100 µM

COc1cc(C2(C)SCCCS2)c(I)c(OC)c1OC
TGI (DMS 114 small cell lung): > 100 µM | TGI (HOP-18 NSCLC): > 100 µM | TGI (XF 498 CNS): > 100 µM | TGI (KM20L2 colon): > 100 µM | TGI (RXF-631 renal): > 100 µM | TGI (SNB-78 CNS): > 100 µM | TGI (M19-MEL melanoma): > 100 µM | TGI (DMS 273 small cell lung): > 100 µM
